Test [1] has as its system MPro^WT (SARS-CoV-2 main protease, mature dimer). Type of test: binding.
For another test, the target named is MPro^C145A (Severe acute respiratory syndrome coronavirus 2, UniProt P0DTC1, C3408A). Type of test: binding, SARS-CoV-2.
Test [2] has as its target T1, MPro^1-199(C145A) (Severe acute respiratory syndrome coronavirus 2, UniProt P0DTC1, C3408A). Type of test: binding, SARS-CoV-2.
Test [3] deals with T1, MPro^1-199(C145A). More on the design: species or system SARS-CoV-2.
Test [4] has as its system MPro^WT (SARS-CoV-2 main protease, mature dimer). The following applies: ITC, cited from earlier work; for Kd: read-out: Kd = Ki.

Structures are written as SMILES. Read-outs that look alike come from different tables or passages of the source. Some results are limits rather than exact numbers.

In general, Kd refers to the concentration at which binding is half-saturated. For `CC(C)(C)[C@H](NC(=O)C(F)(F)F)C(=O)N1C[C@H]2[C@@H]([C@H]1C(=O)N[C@H](C#N)C[C@@H]1CCNC1=O)C2(C)C` [NMV, nirmatrelvir], the “increase in binding affinity by nitrile warhead reacting with C145” value in test [1] is ~ 400 times. Further, on MPro^C145A, the N stood at 0.96 ± 0.04, the ΔH result was “–3.89 ± 0.2 kcal/mol” and the ΔS stood at 12.6 cal/mol/K. The “protein-inhibitor adduct in mass spectra” value on MPro^1-199(C145A) [2] was “absence of the imidate thioester adduct”. In addition, on MPro^1-199(C145A) [3], the Kdimer.app is above 200 µM and the “dimer formation in SV-AUC” value is reported as “no faster sedimenting species other than a monomer was observed”. Besides, in test [4] (NMV), the N is 0.99 ± 0.003, the ΔG entry is recorded as “–11.2 kcal/mol”, the ΔH entry is given as “–10.75 ± 0.7 kcal/mol” and the ΔS is on record as 1.57 cal/mol/K. Besides, the Kd in test [4] (NMV) was 7 ± 3 nM.

Consider `CC(C)C[C@H](NC(=O)OCc1ccccc1)C(=O)N[C@H](C=O)C[C@@H]1CCNC1=O` [GC373], for which the “Kd = Ki” value at MPro^C145A is given as “no response”. In test [4] (GC373), the N is 0.99 ± 0.01, the ΔG was -9.4 kcal/mol, the ΔH was -6.7 ± 0.1 kcal/mol and the ΔS is 9.1 cal/mol/K. Besides, the Kd in test [4] (GC373) is 150 ± 30 nM.

Source of the values: article PMC9481597 (Communications Biology, 2022).
